Experiments:
[1] = Blood pressure (MAP) by tailcuff; assay type: in vivo, rat; conditions: 12 days subcutaneous osmotic pump, tailcuff just prior to euthanasia
Protocol: Animals and tissues. Twelve- to 16-week old male Sprague-Dawley rats, spontaneously hypertensive rats (SHR), and Wistar-Kyoto rats ([…]) (Charles River Laboratories, St. Constant, Canada) were studied. All animal use procedures were in accordance with institutional guidelines and approved by the institutional Animal Care and Use Committee at the University of Vermont. Rats were euthanized with an injection of pentobarbitone (150 mg/kg ip) followed by exsanguination. The brain was removed and cerebellar and cerebral arteries (between 125 and 225 μm diameter) were dissected free in ice-cold MOPS-buffered saline solution containing (in mM): 3 MOPS, 145 NaCl, 5 KCl, 1 MgSO4.7H2O, 2.5 CaCl2, 1 KH2PO4, 0.02 EGTA, 2 pyruvate, 5 glucose and 1% bovine serum albumin (BSA) at pH 7.4. Angiotensin II or a control vehicle (physiological saline solution) was administered for 12 days using a subcutaneous osmotic pump. Blood pressures (MAP) were measured by tailcuff just prior to euthanasia and averaged 93±2 mm Hg in control rats and 146±5 mm Hg in Angiotensin II treated rats.

TRPC6 = assay: Western analysis of TRPC6 protein expression in arteries; assay type: cell-based, rat; conditions: Angiotensin-II hypertensive rats; cerebral arteries
Protocol: (§1) Western Analysis. Arterial segments were homogenized in lysis buffer (5 minutes, 4° C.) containing (in mM): 40 CAPS, 1 DL-Dithiothreitol (DTT), 10 EDTA, 15 MgCl2, 115 NaCl, 1 NaOrthovanadate, 1 NaF, 2.5 Urea, and 0.25% deoxychlorate, 10% glycerol, 1% NP-40, 0.2% SDS, and 1:50 mammalian protease inhibitor cocktail (Sigma, St. Louis, Mo., USA). Equal amounts of sample protein were separated on a 10% polyacrylamide gel and transferred to a nitrocellulose membrane. The membranes were exposed to a TRPC3 or TRPC6 polyclonal antibody (anti-rabbit 1:200 dilution, Alomone Labs, Jerusalem, Israel) and a […] (GAPDH) monoclonal antibody (anti-mouse, 1:1000 dilution, Chemicon Labs, Temecula, Calif., USA). Alexa-Fluor 680® goat anti-rabbit (Molecular Probes, Eugene, Oreg., USA) and IRDyeTM800 anti-mouse (Rockland Immunochemicals, Gilbertsville, Pa., USA) were used to fluorescently label the TRPC3 and GAPDH antibodies respectively. The density of signals specific for the TRPC3 and GAPDH bands in a given lane on a membrane were measured after scanning the membrane with an Odyssey® infared imaging system (Li-COR Biosciences, Lincoln, Nebr., USA). Quantified amounts were normalized to a total protein amount lane on the polyacrylamide gel.
Oligodeoxynucleotide Sequences and Reverse Permeabilization. […]

TRPC3 = assay: Western analysis of TRPC3 protein expression in arteries; assay type: cell-based, rat; conditions: Angiotensin-II hypertensive rats; cerebral and mesenteric arteries
Protocol: as §1
Oligodeoxynucleotide Sequences and Reverse Permeabilization. TRPC6 sense and antisense oligodeoxynucleotides (ODN's) were designed as previously described (Welsh et al 2002 Circ Res 90, 248-250) and were as follows: sense, 5′-[…]-3′ (SEQ ID: 3) and 5′-GCACACGCAGCCTCTTCAC-3′ (SEQ ID: 4) antisense, 5′-[…]-3′ (SEQ ID: 5) and 5′-[…]-3′ (SEQ ID: 6). TRPC3 sense and antisense ODN's were designed based on the rat TRPC3 gene (Ohki et al 2000 J Biol Chem 275: 39055-39060) and are as follows: sense, 5′-[…]-3′ (SEQ ID: 7) and 5′-[…]-3′ (SEQ ID: 8); anti-sense, 5′-[…]-3′ (SEQ ID: 9) and 5′-[…]-3′ (SEQ ID: 10). The last five bases on the 5′ and 3′ end were phosphorothioated in order to limit ODN degradation. […]

Angiotensin II (DRVYIHPF; Angiotensin-2; UniProt P01015 25-32, looked up)
Blood pressure (MAP) [1]: 146±5 mm Hg | expression of TRPC6 versus normotensive controls (TRPC6): increased expression | expression of TRPC3 versus normotensive controls (TRPC3): trends towards increased expression

— US20060217340A1, “Methods and products for treating hypertension by modulation of TRPC3 channel activity” (University of Vermont and State Agricultural College, priority 2005, published 2006)
